From patent US10023557B2 (LifeSci Pharmaceuticals, Inc., priority 2015, dated 2018)

Target: human plasma kallikrein (Homo sapiens (Human), UniProt P03952)
Experiment: In vitro enzyme inhibition of human plasma kallikrein (PFR-AMC cleavage)
Assay type: biochemical
Details: Pro-Phe-Arg-AMC substrate, 37° C., read-out: hPK IC50
Method: The ability of the compounds disclosed herein to inhibit human plasma kallikrein activity was quantified according to the procedures below.
A 10 mM solution of the test compound was made in DMSO. […] A control tube containing only DMSO is included. 16 μL of each compound test solution was combined with 384 μL of assay buffer (50 mM Tris-HCl pH 7.5, 150 mM NaCl, 0.01% Triton X-100) to yield a “4× test compound buffer stock”.
These solutions are hereby referred to as 4× hPK and 2×PFR-AMC, respectively.
50 μL was removed from this mixture and placed into duplicate wells on a Microfluor 1Black U-bottom microtiter plate (Thermo Scientific). This plate was incubated for 5 minutes at 37° C. To each well, 50 μL of pre-warmed 2×PFR-AMC was added to start the enzymatic reaction. Cleavage of PFR-AMC was monitored in a Biotek Synergy H4 reader set at 37° C. Readings are taken every 43 seconds for 1 hour. […] The IC50 is calculated using the Gen5 (Biotek Instruments).
The ability of the compounds in Table 3 to inhibit human plasma kallikrein activity was determined.

Chain of human plasma kallikrein (P03952 391-638): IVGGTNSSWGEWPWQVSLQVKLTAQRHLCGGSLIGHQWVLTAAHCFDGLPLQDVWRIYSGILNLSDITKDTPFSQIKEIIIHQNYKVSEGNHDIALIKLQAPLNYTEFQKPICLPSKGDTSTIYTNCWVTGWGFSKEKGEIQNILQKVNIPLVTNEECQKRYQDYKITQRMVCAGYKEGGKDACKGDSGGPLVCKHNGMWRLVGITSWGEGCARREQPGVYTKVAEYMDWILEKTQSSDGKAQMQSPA
Chain of human plasma kallikrein (P03952 20-390 partner): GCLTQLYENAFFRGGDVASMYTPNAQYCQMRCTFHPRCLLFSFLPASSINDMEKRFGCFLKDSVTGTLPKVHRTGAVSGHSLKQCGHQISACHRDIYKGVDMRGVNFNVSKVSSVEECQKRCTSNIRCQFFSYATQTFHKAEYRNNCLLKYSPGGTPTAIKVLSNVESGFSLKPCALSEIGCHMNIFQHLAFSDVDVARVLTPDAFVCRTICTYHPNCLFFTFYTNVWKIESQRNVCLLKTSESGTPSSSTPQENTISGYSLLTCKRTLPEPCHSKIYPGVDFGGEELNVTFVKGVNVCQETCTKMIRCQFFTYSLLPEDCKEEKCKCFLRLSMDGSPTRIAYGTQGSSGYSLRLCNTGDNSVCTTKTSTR

Row | Molecule | IC50
1 | Cc1cnc2c(C(C)(C)O)cc(Cc3cc(C(=O)NCc4cnc5[nH]cc(Cl)c5c4)ccn3)cc2c1 [Example 316, N-((3-chloro-1H-pyrrolo[2,3-b]pyridin-5-yl)methyl)-2-((8-(2-hydroxypropan-2-yl)-3-methylquinolin-6-yl)methyl)isonicotinamide] | < 0.1 µM
2 | Cc1nc2c(cc1CNC(=O)c1ccnc(Cc3ccc4ncc(C(F)(F)F)cc4c3)c1)CNC2 [Example 164, N-((2-methyl-6,7-dihydro-5H-pyrrolo[3,4-b]pyridin-3-yl)methyl)-2-((3-(trifluoromethyl)quinolin-6-yl)methyl)isonicotinamide] | > 10 µM
3 | Cc1cc(N)nc(C)c1CNC(=O)c1ccnc(Cn2ncc3cc(Cl)cnc32)c1 [Example 202, N-((6-amino-2,4-dimethylpyridin-3-yl)methyl)-2-((5-chloro-1H-pyrazolo[3,4-b]pyridin-1-yl)methyl)isonicotinamide] | 0.1 to 1 µM
4 | Cc1ccn2c(C)nc(CNC(=O)c3ccnc(Cc4ccc5ncc(C(F)(F)F)cc5c4)c3)c2c1 [Example 159, N-((3,7-dimethylimidazo[1,5-a]pyridin-1-yl)methyl)-2-((3-(trifluoromethyl)quinolin-6-yl)methyl)isonicotinamide] | 0.1 to 1 µM
5 | N-(6-amino-2,4-dimethyl-pyridin-3-ylmethyl)-2-(2-cyano-quinolin-6-ylmethyl)-isonicotinamide [Example 131] | < 0.1 µM
6 | Cc1cnc2c(C(C)(C)O)cc(Cc3cc(C(=O)NCc4ccc5c(N)nccc5c4)ccn3)cc2c1 [Example 319] | < 0.1 µM
7 | Cc1nc(N)ccc1C(C)NC(=O)c1ccnc(Cc2ccc3ncc(Cl)cc3c2)c1 (stereo not shown) [Example 237, N-(1-(6-amino-2-methylpyridin-3-yl)ethyl)-2-((3-chloroquinolin-6-yl)methyl)isonicotinamide] | 1 to 10 µM
8 | O=C(NCc1cc2c(Cl)c[nH]c2cc1F)c1ccnc(Cc2ccc3ncc(N4CCC4)cc3c2)c1 [Example 320, 2-((3-(azetidin-1-yl)quinolin-6-yl)methyl)-N-((3-chloro-6-fluoro-1H-indol-5-yl)methyl)isonicotinamide] | < 0.1 µM
9 | Cc1cc2[nH]cc(Cl)c2cc1CNC(=O)c1ccnc(Cc2ccc3ncc(Cl)cc3c2)c1 [Example 190, N-((3-chloro-6-methyl-1H-indol-5-yl)methyl)-2-((3-chloroquinolin-6-yl)methyl)isonicotinamide] | 0.1 to 1 µM
10 | Nc1cnc2ccc(Cc3cc(C(=O)NCc4ccc5c(N)nccc5c4)ccn3)cc2c1 [Example 298, N-((1-aminoisoquinolin-6-yl)methyl)-2-((3-aminoquinolin-6-yl)methyl)isonicotinamide] | 0.1 to 1 µM
11 | O=C(NCc1cnc2[nH]cc(Cl)c2c1)c1ccnc(Cc2ccc3ncc(N4CCOCC4)cc3c2)c1 [Example 294, N-((3-chloro-1H-pyrrolo[2,3-b]pyridin-5-yl)methyl)-2-((3-morpholinoquinolin-6-yl)methyl)isonicotinamide] | 1 to 10 µM
12 | Cc1nc(N)ccc1CNC(=O)c1ccnc(Cc2ccc3ncc(CO)cc3c2)c1 [Example 258, N-((6-amino-2-methylpyridin-3-yl)methyl)-2-((3-(hydroxymethyl)quinolin-6-yl)methyl)isonicotinamide] | 0.1 to 1 µM
13 | O=C(NCc1c[nH]c2ccc(Cl)cc12)c1ccnc(Cc2ccc3ncc(Cl)cc3c2)c1 [Example 268, N-((5-chloro-1H-indol-3-yl)methyl)-2-((3-chloroquinolin-6-yl)methyl)isonicotinamide] | 0.1 to 1 µM
14 | CC(=O)Nc1cc(C)c(CNC(=O)c2ccnc(Cc3ccc4ncc(Cl)cc4c3)c2)c(C)n1 [Example 193, N-((6-acetamido-2,4-dimethylpyridin-3-yl)methyl)-2-((3-chloroquinolin-6-yl)methyl)isonicotinamide] | 1 to 10 µM
15 | Cc1nc(N)ccc1CNC(=O)c1ccnc(Cc2ccc3ncc(C(N)=O)cc3c2)c1 [Example 251, 6-((4-(((6-amino-2-methylpyridin-3-yl)methyl)carbamoyl)pyridin-2-yl)methyl)quinoline-3-carboxamide] | 1 to 10 µM
16 | O=C(NCc1n[nH]c2ccc(Cl)cc12)c1ccnc(Cc2ccc3ncc(C(F)(F)F)cc3c2)c1 [Example 233, N-((5-chloro-1H-indazol-3-yl)methyl)-2-((3-(trifluoromethyl)quinolin-6-yl)methyl)isonicotinamide] | < 0.1 µM

Results, then the molecule that gave them:

Row | IC50 | Molecule
17 | > 10 µM | O=C(NCc1ccc2[nH]cc(Cl)c2c1F)c1ccnc(Cc2ccc3ncc(N4CCCCC4)cc3c2)c1 [Example 305, N-((3-chloro-4-fluoro-1H-indol-5-yl)methyl)-2-((3-(piperidin-1-yl)quinolin-6-yl)methyl)isonicotinamide]
18 | 1 to 10 µM | O=C(NCc1cc2c(Cl)c[nH]c2cc1F)c1ccnc(Cc2ccc3ncc(N4CCNCC4)cc3c2)c1 [Example 313, N-((3-chloro-6-fluoro-1H-indol-5-yl)methyl)-2-((3-(piperazin-1-yl)quinolin-6-yl)methyl)isonicotinamide]
19 | 0.1 to 1 µM | Cc1ccn2c(C)nc(CNC(=O)c3ccnc(Cc4ccc5ncc(Cl)cc5c4)c3)c2c1 [Example 158, 2-((3-chloroquinolin-6-yl)methyl)-N-((3,7-dimethylimidazo[1,5-a]pyridin-1-yl)methyl)isonicotinamide]
20 | < 0.1 µM | Cc1nc(N)ccc1CNC(=O)c1ccnc(Cc2cnc3ncc(Cl)cc3c2)c1 [Example 205, N-((6-amino-2-methylpyridin-3-yl)methyl)-2-((6-chloro-1,8-naphthyridin-3-yl)methyl)isonicotinamide]
21 | 0.1 to 1 µM | Cc1[nH]c2ccc(Cl)cc2c1CNC(=O)c1ccnc(Cc2ccc3ncc(Cl)cc3c2)c1 [Example 270, N-((5-chloro-2-methyl-1H-indol-3-yl)methyl)-2-((3-chloroquinolin-6-yl)methyl)isonicotinamide]
22 | < 0.1 µM | Cc1nc(N)ccc1CNC(=O)c1ccnc(Cc2cc(N)c3ncc(Cl)cc3c2)c1 [Example 218, N-((6-amino-2-methylpyridin-3-yl)methyl)-2-((8-amino-3-chloroquinolin-6-yl)methyl)isonicotinamide]
23 | > 10 µM | O=C(NCc1ccc2ncc(Cl)cn12)c1ccnc(Cc2ccc3ncc(Cl)cc3c2)c1 [Example 206, N-((3-chloropyrrolo[1,2-a]pyrimidin-6-yl)methyl)-2-((3-chloroquinolin-6-yl)methyl)isonicotinamide]
24 | < 0.1 µM | COC(c1ccc2ncc(Cl)cc2c1)c1cc(C(=O)NCc2c(C)cc(N)nc2C)ccn1 (stereo not shown) [Example 296, N-((6-amino-2,4-dimethylpyridin-3-yl)methyl)-2-((3-chloroquinolin-6-yl)(methoxy)methyl)isonicotinamide]
25 | 0.1 to 1 µM | Nc1cnc2ccc(Cc3cc(C(=O)NCc4cc5c(Cl)c[nH]c5cc4F)ccn3)cc2c1 [Example 297, 2-((3-aminoquinolin-6-yl)methyl)-N-((3-chloro-6-fluoro-1H-indol-5-yl)methyl)isonicotinamide]
26 | < 0.1 µM | CCc1cnc2ccc(Cc3cc(C(=O)NCc4ccc5[nH]cc(Cl)c5c4F)ccn3)cc2c1 [Example 282, N-((3-chloro-4-fluoro-1H-indol-5-yl)methyl)-2-((3-ethylquinolin-6-yl)methyl)isonicotinamide]
27 | < 0.1 µM | CCc1cnc2ccc(Cc3cc(C(=O)NCc4ccc(N)nc4C)ccn3)cc2c1 [Example 285, N-((6-amino-2-methylpyridin-3-yl)methyl)-2-((3-ethylquinolin-6-yl)methyl)isonicotinamide]
28 | > 10 µM | NCc1ccc(CNC(=O)c2ccnc(Cc3ccc4ncc(Cl)cc4c3)c2)nc1 [Example 170, N-((5-(aminomethyl)pyridin-2-yl)methyl)-2-((3-chloroquinolin-6-yl)methyl)isonicotinamide]
29 | < 0.1 µM | Cc1cc(N)nc(C)c1CNC(=O)c1cc(Cc2ccc3ncc(Cl)cc3c2)nc(-c2n[nH]c(=O)[nH]2)c1 [Example 196, N-((6-amino-2,4-dimethylpyridin-3-yl)methyl)-2-((3-chloroquinolin-6-yl)methyl)-6-(5-oxo-4,5-dihydro-1H-1,2,4-triazol-3-yl)isonicotinamide]
30 | > 10 µM | COc1cc(N)nc(C)c1CNC(=O)c1ccnc(Cc2ccc3ncc(Cl)cc3c2)c1 [Example 166, N-((6-amino-4-methoxy-2-methylpyridin-3-yl)methyl)-2-((3-chloroquinolin-6-yl)methyl)isonicotinamide]
31 | 0.1 to 1 µM | Cc1cc(N)nc(C)c1CNC(=O)c1ccnc(C(=O)c2ccc3ncc(Cl)cc3c2)c1 [Example 274, N-((6-amino-2,4-dimethylpyridin-3-yl)methyl)-2-(3-chloroquinoline-6-carbonyl)isonicotinamide]
32 | > 10 µM | Cc1cc(C(C)(C)O)nc(C)c1CNC(=O)c1ccnc(Cc2ccc3ncc(C(F)(F)F)cc3c2)c1 [Example 174, N-((6-(2-hydroxypropan-2-yl)-2,4-dimethylpyridin-3-yl)methyl)-2-((3-(trifluoromethyl)quinolin-6-yl)methyl)isonicotinamide]
33 | > 10 µM | O=C(NCc1ccc2cnc(C(F)(F)F)n2c1)c1ccnc(Cc2ccc3ncc(Cl)cc3c2)c1 [Example 185, 2-((3-chloroquinolin-6-yl)methyl)-N-((3-(trifluoromethyl)imidazo[1,5-a]pyridin-6-yl)methyl)isonicotinamide]
34 | < 0.1 µM | CCc1cnc2ccc(Cc3cc(C(=O)NCc4n[nH]c5ccc(Cl)cc45)ccn3)cc2c1 [Example 284, N-((5-chloro-1H-indazol-3-yl)methyl)-2-((3-ethylquinolin-6-yl)methyl)isonicotinamide]
